These results are taken from US5462861A, “Method for improving enzyme activities with noble gases” (American Air Liquide, Chicago Research Center, priority 1993, dated 1995).

For one assay, the target named is T1, β-D-Glucosidase (Caldicellulosiruptor saccharolyticus, UniProt P10482).
T1 construct: purchased Sigma G-0898; host or cells: E. coli
As to the kind of experiment: Immobilized enzymes: β-D-glucosidase under air or xenon. It counts as biochemical, Caldocellum saccharolyticum. Particulars: 25° C., FIG. 44. The method, then: Theory: Same gases effects on either free or immobilized enzymes.
β-D-Glucosidase (SIGMA) No. G-0898)
From Caldocellum saccharolyticum: Recombinant (pfs)
Soln C1: β-D-Glucosidase solution in Na Phos. buffer pH 6.6 (25 ° C.) (2.18 Units/ml)
(For insoluble enzymes lyophilized powders, SIGMA recommends to suspend the required amount to 5-10 mg solid/ml H2 O and to allow brief hydration). We allowed a brief hydration (until solution appears)
Sample: 2 ml Soln B+0.5 ml Soln C1
CPRG: β-Glucosidase: 25° C.

In a further assay the test system is β-glucosidase. Nature of the assay: Kinetic analyses, β-glucosidase. Type of assay: biochemical. Also on record: Rates G5 / Rates G5, Calculated: unit not given beside the values. The method, then: (§1) Absorbance curve data as previously exemplified reveal differences in enzymatic activity under different gas atmospheres both in terms of yield and in terms of rate. Yield can be calculated after equilibrium is reached by comparative curve differencing, and through formal linearization and calculation--which are also necessary for rate calculations. Rate differences are calculated using commercially available computer programs (ENZFITTER, GRAFIT, ENZPACK, PEAKFIT) which transform the initial uv/vis absorbance data curve (in these examples, a power curve) into straight lines (linear regression of power curve). These lines may be expressed as a mathematical equation in which the slope is approximately the rate, and the limit Y-intercept is approximately the yield. […] The examples and figures described below represent these steps in exemplary form.
Table 1 illustrates Michaelis-Menten enzyme kinetics calculations of Vmax and Km, and the rates for each reaction. Vmax is the limiting rate, Km is the Michaelis-Menten constant.
FIG. 46 and Table 2 illustrate the same as FIG. 45 and Table 1, however, for xenon reactions. It is readily apparent that the Vmax and Km for xenon are larger.
FIG. 47, Table 3, FIG. 48 and Table 4 illustrate the first-order power curve regression rate linear transformations for the above air and xenon gassed reactions, showing an approximation to the Michaelis-Menten data, wherein the Xe/Air rate relationship is in the same ratio as above.
FIG. 49, FIG. 50 and Table 5 illustrate the same first-order rate approximation regression linearizations for all gases studied in this run.

A further assay concerns tyrosinase. Nature of the assay: Kinetic analyses, tyrosinase. It counts as biochemical. How it is done: as §1
FIG. 51, Table 6, FIG. 52 and Table 7 illustrate data from the first 160 seconds of a single tyrosinase experiment expressed as power curves for air, then for xenon gassing.

The subject of another assay is particulate sialidase. Particulars: Sandhoff et al, FEBS Letters 1976; cited from earlier work.
Another assay deals with isomerase enzymes. As to the kind of experiment: Isomerases, effects for the class. It counts as biochemical. How it is done:
Solution preparation: Optimized w/v solutions are prepared by diluting the enzyme (units/ml) and the substrate (μg/ml) in appropriate buffer (optimized pH and molarity for enzymes). The solutions are used for gas experiments at once to avoid loss of activity. Various enzyme and substrate concentrations and inhibitors may be employed. Physical parameters are varied as required.
Preparation of samples: Cuvets are filled with 2 ml of substrate solution by means of a gas-tight syringe. Gas-tight serum vials are filled with enzyme and solvent. Sufficient gas is consecutively bubbled in the cuvets and serum vials, with a 1-hr wait between injections to maximize equilibration of gas. […] The amount of gas used has been measured sufficient to saturate the solution required.
Spectrophotometric time-drive, reaction rate, and kinetic analyses: cuvets and serum vials are saturated with gas 40 minutes before the run. […] Changes in the rate or final equilibrium of the reaction versus ambient air are recorded. […]
In a complete experiment, an enzyme at optimal pH and buffering salt concentration is reacted with 5 substrate concentrations in solution with noble gas at 1 atm. […] The reaction is monitored colorimetrically in a scanning spectrophotometer in real time, and the signals are treated mathematically to obtain rate and yield differences. […]

Setting [1] is: 1st order rate equation, [S] = 60 micrograms/ml, Table 4.

T1 sequence (P10482 whole entry): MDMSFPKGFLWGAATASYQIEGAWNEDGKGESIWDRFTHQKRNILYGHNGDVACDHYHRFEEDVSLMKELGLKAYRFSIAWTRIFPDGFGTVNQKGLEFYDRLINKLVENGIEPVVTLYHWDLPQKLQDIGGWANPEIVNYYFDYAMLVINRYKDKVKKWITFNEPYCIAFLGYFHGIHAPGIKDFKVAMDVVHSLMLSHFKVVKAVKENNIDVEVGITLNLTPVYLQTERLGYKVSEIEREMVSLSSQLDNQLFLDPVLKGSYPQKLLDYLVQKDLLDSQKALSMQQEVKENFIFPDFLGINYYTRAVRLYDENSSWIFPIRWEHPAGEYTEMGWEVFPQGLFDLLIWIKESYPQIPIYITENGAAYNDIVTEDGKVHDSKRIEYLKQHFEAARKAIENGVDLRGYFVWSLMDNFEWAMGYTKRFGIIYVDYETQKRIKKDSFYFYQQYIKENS

Regarding `[Xe]` [Xe, xenon], the “effect on β-glucosidase in immobilized form” value at β-D-Glucosidase is given as “enhancing”. The “Vmax and Km compared with air” value in the assay on β-glucosidase is recorded as “larger”. Moreover, the Limit in the assay with β-glucosidase (setting [1]) is 0.8382. The Rate constant with β-glucosidase (setting [1]) is on record as 0.0045. In addition, the V max in the assay with β-glucosidase (Michaelis-Menten, Gas 5: Xenon, Table 2) was 0.0028; in the assay on tyrosinase (Michaelis-Menten, Gas 5: Xenon, Table 7, first 160 seconds), 0.0001. Besides, the “Rates G5” value with β-glucosidase ([S] 20.0000) is given as 0.0032; in the assay on β-glucosidase ([S] 40.0000), 0.0029; in the assay on β-glucosidase ([S] 60.0000), 0.0027; in the assay with β-glucosidase ([S] 80.0000) it was 0.0030; with β-glucosidase ([S] 100.0000), 0.0029. Moreover, the “Rates G5, Calculated” value is 0.0032 with β-glucosidase ([S] 20.0000); 0.0029 in the assay with β-glucosidase ([S] 40.0000); 0.0029 in the assay with β-glucosidase ([S] 60.0000); 0.0029 in the assay with β-glucosidase ([S] 80.0000); 0.0028 in the assay on β-glucosidase ([S] 100.0000). Further, the “effect on β-glucosidase reaction” value in the assay on β-glucosidase (power curve analysis / linearization, FIGS. 49 and 50) is “significant enhancement”. The “Y, Calculated” value is listed as -0.0001 in the assay with tyrosinase ([S] 10.0000); -0.0003 in the assay on tyrosinase ([S] 20.0000); 0.0017 in the assay on tyrosinase ([S] 30.0000); 0.0004 in the assay on tyrosinase ([S] 40.0000); 0.0003 in the assay on tyrosinase ([S] 50.0000). The “Y, Gas 5: Xenon (rate)” value in the assay with tyrosinase ([S] 10.0000) was determined as 0.0007; with tyrosinase ([S] 20.0000) it was 0.0019; in the assay with tyrosinase ([S] 30.0000) it was 0.0019; in the assay with tyrosinase ([S] 40.0000) it was 0.0019; in the assay with tyrosinase ([S] 50.0000) it was 0.0004. Further, the “effect on tyrosinase activity” value in the assay with tyrosinase (linearized rate regression and Michaelis-Menten calculations) is listed as “strongly inhibiting tyrosinase activity”. Further, the “effect on activity of particulate sialidase” value with particulate sialidase was “enhance the activity”.

As for `[Ar]` [Ar, argon], in the assay on isomerase enzymes, the effect on isomerases result is on record as “can be induced to inhibit enzyme activity at higher temperatures”.
